Assay results as given in publication PMC8631515 (Frontiers in Oncology, 2021).
Non-standard residues stand in square brackets, D forms with d. No end group written: not given here.

Experiments:
heart, liver and kidney = experiment: H&E histology of major organs of tumor-bearing mice; type: in vivo, Balb/c mice; settings: CT26-bearing mice, i.p. twice a week for two weeks, n = 7
[1] = Cleavage assay of PPA1-DOX in acidic sodium phosphate buffer; type: physicochemical; settings: sodium phosphate buffer pH 5.0, 37°C, sampled 0.5-24 h, under nitrogen, 1 mg/mol (so in the source) in 2 mL; HPLC (HILIC), UV 254 nm
Method: (§1) To verify the acid sensitivity of hydrazone bond linking the PPA1 to DOX, a series of PPA1-DOX and DOX solutions with different concentrations were configured in the sodium phosphate buffer (pH= 9.0), respectively. A 5 μL aliquot of each sample was injected onto an HPLC system with ultraviolet detector wavelength to determine 254 nm absorbance values, using hydrophilic interaction chromatography (HILIC) column separation (Waters, XBridge BEH HILIC XP Column, 2.1 mm, 50 mm, 2.5 µm). Through simulating the linearity fitting from disposed concentrations and detected absorbance values, standard curves of PPA1-DOX and DOX were obtained, respectively.
(§2) Preparing two partials of PPA1-DOX (1 mg/mol) were dissolved into the 2 mL sodium phosphate buffer (pH = 5.0) and 2 mL mouse serum (pH = 7.4), respectively, and the vials were capped and kept 37°C under nitrogen with continuously slight oscillaation. Samples (20 μL) were spiked and analyzed by HPLC under the 254 nm absorbance value after incubating 0.5 h, 1 h, 2 h, 4 h, 12 h and 24 h. For evaluation of hydrazone bond cleavage data was considered the disappearance of the major peak related to the standard curves of PPA1-DOX and DOX.

[2] = Cleavage assay of PPA1-DOX in mouse serum; type: in vitro ADME; settings: mouse serum pH 7.4, 37°C, 24 h, under nitrogen, 1 mg/mol (so in the source) in 2 mL; HPLC (HILIC), UV 254 nm
Method: as §1, §2

[3] = system: intratumoral CD4+ and CD8+ T cells; experiment: CD4/CD8 immunohistochemistry of tumor tissues; type: in vivo, Balb/c mice; settings: CT26-bearing mice, compared with RNA-DOX-, DOX- or 5-FU-treated mice
Method: The tumor tissues were fixed in 4% paraformaldehyde, gradually dehydrated, embedded in paraffin, cut into 4um sections, and subjected for hematoxylin/eosin staining. For immuno-histochemical staining of CD4/CD8 positive cells, tissue sections processed through deparaffinage, rehydration and antigen plerosised, and endogenous peroxidase activity blockade, were incubated with mouse anti-human CD4(1:300, Proteintech, USA), mouse anti-human CD8(1:200, Proteintech, USA) at 4°C overnight, respectively. The secrions were then washed and incubated with a HRP-labeled secondary antibody at RT for 40 min. After color development through incubation with diaminobenzidine, the sections were counterstained with hematoxylin. The stained sections were observed and imaged under a light microscope.

CT26 tumor = experiment: Antitumor activity in CT26-bearing mice; type: in vivo, Balb/c mice; settings: i.p. twice a week for two weeks
[4] = Body weight of CT26 tumor-bearing mice; settings: i.p. twice a week for two weeks, DOX 5 mg/kg, 5-Fu 10 mg/kg, PPA1 15 mg/kg, PPA1-DOX 20 mg/kg, after day 7, n = 7
Excerpt: Six-week-old female Balb/c mice were inoculated subcutaneously with 5 × 10^6 CT26 cells in the left armpit. The mice were randomly divided into groups with 7 mice in each group after the tumor reached about 100 mm^3. The mice were housed in animal house of Shenzhen University. For the survival experiment, the mice were killed when the tumor reached about 1500 mm^3. The tumor size and body weight were monitored every day after the injection of the drugs. At the end of the experiment, the tumors and major organs (heart, liver, spleen, lung, and kidney) were collected for immunohistochemistry and/or histological tests. For the PPA1-DOX distribution experiment, the tumors and major organs were subsequently analyzed with an in vivo imaging system (IVIS Spectrum, PerkinElmer).
DOX at 5 mg/kg, 5-Fu at 10 mg/kg, PPA1 and RAN at 15mg/kg, PPA1-DOX and RAN-DOX at 20 mg/kg were injected intraperitoneally to mice twice a week for two weeks. […] For the PPA1-DOX distribution experiment, RhB-PPA1-DOX and RhB-RAN-DOX at 20mg/kg were injected into the tail vein of the mice.

[5] = biological target: Programmed death-ligand 1 (PD-L1), Tag1-PD-L1 (UniProt Q9NZQ7 19-238); experiment: AlphaScreen or HTRF; Cisbio HTRF PD1/PD-L1 binding assay kit; Tag1-PD-L1 and Tag2-PD1 detected with anti-Tag1-Europium (donor) and anti-Tag2-XL665 (acceptor); peptide or conjugate varied as blocker; IC50 from a sigmoidal (Hill) fit; n = 3; settings: both partners purified
Sequence of Programmed death-ligand 1 (PD-L1), Tag1-PD-L1 (Q9NZQ7 19-238): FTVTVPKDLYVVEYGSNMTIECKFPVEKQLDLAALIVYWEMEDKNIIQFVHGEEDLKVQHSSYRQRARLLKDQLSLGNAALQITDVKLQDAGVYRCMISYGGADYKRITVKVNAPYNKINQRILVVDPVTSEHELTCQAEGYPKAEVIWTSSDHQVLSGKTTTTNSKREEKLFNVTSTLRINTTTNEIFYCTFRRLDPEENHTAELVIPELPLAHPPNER

| Molecule | toxicity to major organs (H&E stained sections) (heart, liver and kidney) | IC50 [5] [nM] | also measured |
| --- | --- | --- | --- |
| C[C@H](O)[C@@H](NC(=O)[C@H]1CCCN1C(=O)[C@@H](CCCCN)NC(=O)[C@@H](CO)NC(=O)[C@@H](Cc1ccc(O)cc1)NC(=O)[C@H](N)CC(N)=O)C(=O)N[C@H](CC(=O)O)C(=O)N[C@H](CCCNC(=N)N)C(=O)N[C@H](CCC(N)=O)C(=O)N[C@H](Cc1ccc(O)cc1)C(=O)N[C@H](Cc1c[nH]cn1)C(=O)N[C@H](Cc1ccccc1)C(=O)N[C@H](CCCCN)C(=O)O [PPA1] | rather low toxicity |  |  |
| COc1cccc2c1C(=O)c1c(O)c3c(c(O)c1C2=O)C[C@@](O)(C(=O)CO)C[C@@H]3O[C@H]1C[C@H](N)[C@H](O)[C@H](C)O1 [DOX, doxorubicin] | severe damages |  |  |
| COc1cccc2c1C(=O)c1c(O)c3c(c(O)c1C2=O)C[C@@](O)(C(CO)=NNC(=O)CCCc1cn(CC(=O)NCCCC[C@@H](NC(=O)[C@@H](Cc2ccccc2)NC(=O)[C@@H](Cc2c[nH]cn2)NC(=O)[C@@H](Cc2ccc(O)cc2)NC(=O)[C@@H](CCC(N)=O)NC(=O)[C@@H](CCCNC(=N)N)NC(=O)[C@@H](CC(=O)O)NC(=O)[C@H](NC(=O)[C@H]2CCCN2C(=O)[C@@H](CCCCN)NC(=O)[C@@H](CO)NC(=O)[C@@H](Cc2ccc(O)cc2)NC(=O)[C@H](N)CC(N)=O)[C@H](C)O)C(=O)O)nn1)C[C@@H]3O[C@H]1C[C@H](N)[C@H](O)[C@H](C)O1 [PPA1-DOX] | rather low toxicity |  | hydrazone cleavage in acidic environment [1]: rapidly cleaved into PPA1 and DOX; stability of conjugate in mouse serum (HPLC peaks) [2]: little change on peaks; infiltration of CD4+ and CD8+ T cells in tumors [3]: obviously increased infiltration; survival time (CT26 tumor; PPA1-DOX 20 mg/kg, superior to free PPA1 and RAN-DOX, mice killed at tumor about 1500 mm^3, n = 7): longer survival time; tumor growth (CT26 tumor; PPA1-DOX and RAN-DOX 20 mg/kg, n = 7): effective suppression of tumor growth; body weight change [4]: no remarkable body weight loss |
| O=c1[nH]cc(F)c(=O)[nH]1 [Compound 5-Fu] | severe damages |  |  |
| [dN][dY][dS][dK][dP][dT][dD][dR][dQ][dY][dH][dF]K (not fully specified (residue 13); also: triazole from click, hydrazone to doxorubicin, D-peptide, printed as nyskptdrqyhf-Lys(N3); the last lysine carries the azide used for the conjugation to DOX; also called compound 5; PPA-DOX; source: synthetic: azide end-functionalized PPA1 peptide joined to hydrazine-DOX by click chemistry, purified by HPLC) [PPA1-DOX, conjugate of PPA1 with doxorubicin through an acid-sensitive hydrazone linker] |  | 281 |  |
| NYSKPTDRQYHFK (all residues in D-form, D-peptide, printed in lower case (nyskptdrqyhfk); also called free PPA1; PD-L1 targeting polypeptide; source: synthetic peptide, bought: Chinapeptides Co., Ltd) [PPA1, proteolysis resistant PD-L1-targeted peptide] |  | 174 |  |
